The test system of series [1] is IL-1β release from THP-1 cells. Put plainly: IL-1β release assay in differentiated THP-1 cells stimulated with BzATP (ELISA). Format: cell-based. As to conditions: Homo sapiens; for inhibition at 0.3 µM: 0.3 uM compound, BzATP 250 uM, read-out: IL-1β % Inhib. @ 0.3 uM.; for IC50: released IL-1β as in Example 9, four parameter logistic fit, read-out: IL-Iβ IC50. Here is the method:
THP-1 cells (ATCC Cat #285-IF-100) are plated in 96 well plates at a concentration of 200,000 cells per well and allowed to differentiate in RPMI-1640 media (ATCC Cat #30-2001) containing 10% FBS, 100 IU/mL penicillin, 100 ug/mL streptomycin, 100 ng/mL LPS and 100 ng/mL IFN-γ for 16 hours. Following differentiation, the cells are treated for an additional 2 hours in RPMI-1640 media containing 100 IU/mL penicillin, 100 ug/mL streptomycin and fresh LPS at 100 ng/mL. The cells are then pretreated for 30 minutes with the compound of interest at the appropriate concentration in RPMI media containing 100 IU/mL penicillin, 100 ug/mL streptomycin. Following the pretreatment 2′,3′-O-(4-benzoylbenzoyl)-adenosine 5′-triphosphate (Sigma Aldrich Cat # B6396) is added to a final concentration of 250 uM and the cells are incubated for an additional 45 minutes. 30 uL of cell supernatant is then collected and IL-113 levels determined via ELISA (R&D systems Cat. # HSLB50) according to manufacturer's recommendations using the Tecan Safire plate reader. Background adjusted IL-1β levels of drug treated and non-treated cells are used to calculate the percent inhibition. […]
The compounds set forth in Table 1 were tested for activity in a cellular model as described herein. Specifically, cells were pretreated with differing amounts of the compound under test and released IL-1β determined as in Example 9, above. Measurements were made and IC50 values, presented in Table 2, below, were determined by fitting the data to a four parameter logistic equation using GraphPad Prism software (GraphPad Software, Inc). The equation may be expressed by the following formula: Y=Bottom+(Top−Bottom)/(1+10^((LogEC50−X)*HillSlope)) Where X is the logarithm of concentration, Y is the response and Y starts at Bottom and goes to Top with a sigmoid shape.

A short description of series [2]: Half-life in human liver microsomes (HLM). Conditions: 1 μM compound, 0.78 mg/mL HLM, NADPH, pH 7.4, 37° C. Format: in vitro ADME. On the technique in general: Liver microsomes are a subcellular fraction often used to study metabolism.
Method: Test compounds (1 μM) are incubated with 3.3 mM MgCl2 and 0.78 mg/mL HLM (HL101) in 100 mM potassium phosphate buffer (pH 7.4) at 37° C. on the 96-deep well plate. The reaction mixture is split into two groups, a non-P450 and a P450 group. NADPH is only added to the reaction mixture of the P450 group. An aliquot of samples of P450 group is collected at 0, 10, 30, and 60 min time point, where 0 min time point indicated the time when NADPH is added into the reaction mixture of P450 group. An aliquot of samples of non-P450 group is collected at −10 and 65 min time point. Collected aliquots are extracted with acetonitrile solution containing an internal standard. The precipitated protein is spun down in centrifuge (2000 rpm, 15 min). The compound concentration in supernatant is measured by LC/MS/MS system.
The half-life value is obtained by plotting the natural logarithm of the peak area ratio of compounds/internal standard versus time. The slope of the line of best fit through the points yields the rate of metabolism (k). This is converted to a half-life value using following equations: Half-life=ln 2/k

SMILES strings stand for the structures. A value given as a limit tells only on which side of the number the result lay.

In the case of `O=C(NCC1(O)CCCCCC1)c1cccc2c(=O)n(CC3CCOCC3)ccc12` [Compound 2034], in series [1], the inhibition at 0.3 µM was in the range of 51 to 75% and the 50% inhibitory concentration (IC50) – broadly, the concentration needed to halve the response being measured – came to 133 nM. For the same compound, in series [2], the half-life (in general, the time in which the quantity being followed falls by half) at 1 μM is 15.6 min.

Regarding `O=C(NCC1(O)CCCCCC1)c1cccc2c(=O)n(Cc3ccc4c(c3)OCCO4)ccc12` [Compound 2033, 2-(2,3-Dihydro-benzo[1,4]dioxin-6-ylmethyl)-1-oxo-1,2-dihydro-isoquinoline-5-carboxylic acid (1-hydroxy-cycloheptylmethyl)-amide], in series [1], the inhibition at 0.3 µM is more than 76% and the IC50 is 1.37 nM. Further, in series [2], the half-life at 1 μM is 13.8 min.

As for `CC(C)C(CO)n1ccc2c(C(=O)NCC3(O)CCCCCC3)cccc2c1=O` (stereo not drawn) [Compound 2035, 2-(1-Hydroxymethyl-2-methyl-propyl)-1-oxo-1,2-dihydro-isoquinoline-5-carboxylic acid (1-hydroxy-cycloheptylmethyl)-amide], in series [1], the inhibition at 0.3 µM was more than 76% and the IC50 was 5.66 nM. This compound gave a half-life at 1 μM in series [2] of 38.4 min.

Regarding `O=C(NCC1(O)CCCCCC1)c1cccc2c(=O)n(CCO)ccc12` [Compound 2048, 2-(2-Hydroxy-ethyl)-1-oxo-1,2-dihydro-isoquinoline-5-carboxylic acid (1-hydroxy-cycloheptylmethyl)-amide], in series [1], the inhibition at 0.3 µM fell in the range of 26 to 50% and the IC50 worked out at 326 nM. The compound further gave a half-life at 1 μM in series [2] of 42.6 min.

As to `C[C@H](C(N)=O)n1ccc2c(C(=O)NCC3CCCCCC3)cccc2c1=O` [Compound 2062], in series [1], the inhibition at 0.3 µM was more than 76% and the IC50 is 7.46 nM. This compound gave a half-life at 1 μM in series [2] of 36 min.

`O=C(NCC1(O)CCCCCC1)c1cccc2c(=O)n(C(CO)CO)ccc12` [Compound 2047]: in series [1], the inhibition at 0.3 µM is 26 to 50% and the IC50 was 573 nM. This compound had a half-life at 1 μM in series [2] of 31.8 min.

As for `O=C(NCC12CC3CC(CC(C3)C1)C2)c1cccc2c(=O)[nH]ccc12` [Compound 2028, 1-Oxo-1,2-dihydro-isoquinoline-5-carboxylic acid (adamantan-1-ylmethyl)-amide], in series [1], the inhibition at 0.3 µM is more than 76% and the IC50 worked out at 0.73 nM. Besides, the half-life at 1 μM in series [2] was 18.6 min.

In the case of `O=C(NCC1CCCCCC1)c1cccc2c(=O)n(CCO)ccc12` [Compound 2041, 2-(2-Hydroxy-ethyl)-1-oxo-1,2-dihydro-isoquinoline-5-carboxylic acid cycloheptylmethyl-amide], in series [1], the inhibition at 0.3 µM is more than 76% and the concentration for half-maximal inhibition (IC50) was determined as 54 nM. The half-life at 1 μM in series [2] is 18 min.

Consider `CC1(C)CCCC(O)(CNC(=O)c2cccc3c(=O)n(C(CO)CO)ccc23)C1` (stereo not drawn) [Compound 2043], for which, in series [1], the inhibition at 0.3 µM is more than 76% and the IC50 came out at 23 nM. Also, the half-life at 1 μM in series [2] was 38.4 min.

For the compound `C[C@H](C(N)=O)n1ccc2c(C(=O)NCC34CC5CC(CC(C5)C3)C4)cccc2c1=O` [Compound 2064, 2-((R)-1-Carbamoyl-ethyl)-1-oxo-1,2-dihydro-isoquinoline-5-carboxylic acid (adamantan-1-ylmethyl)-amide], in series [1], the inhibition at 0.3 µM is more than 76% and the IC50 amounted to 0.15 nM. In series [2], the half-life at 1 μM is 19.2 min.

Consider `O=C(NCC1(O)CCCCCC1)c1cccc2c(=O)[nH]ccc12` [Compound 2030], for which, in series [1], the inhibition at 0.3 µM fell in the range of 51 to 75% and the IC50 worked out at 79 nM. Moreover, the half-life at 1 μM in series [2] is 23.4 min.

Turning to `C[C@@H](C(N)=O)n1ccc2c(C(=O)NCC3CCCCCC3)cccc2c1=O` [Compound 2063], in series [1], the inhibition at 0.3 µM was more than 76% and the IC50 was found to be 17.3 nM. Besides, in series [2], the half-life at 1 μM was 66 min.

Take `O=C(NCC1CCCCCC1)c1cccc2c(=O)n(C(CO)CO)ccc12` [Compound 2040]: in series [1], the inhibition at 0.3 µM is more than 76% and the IC50 is 39.2 nM. In series [2], this compound gave a half-life at 1 μM of 51 min.

(Values after patent publication US8779144B2, “Bicycloheteroaryl compounds as P2X7 modulators and uses thereof” (Evotec (US) Inc., priority 2006, dated 2014).)
